Laboratory results taken from patent US9175011B2, “Morpholino substituted urea or carbamate derivatives as MTOR inhibitors” (CELLZOME LIMITED, priority 2011, dated 2015).

Tests used:
[1] = target: T1, mTOR (Homo sapiens, UniProt P42345); experiment: mTOR kinobeads assay (Jurkat cell lysate, dot blot detection); assay type: binding; conditions: read-out: Inhibition values (IC50) mTor
T1 construct: Jurkat cells were homogenized in a Potter S homogenizer in lysis buffer; endogenous in cells; host or cells: Jurkat, clone E6-1 (ATCC TIB-152) lysate
Description: (§1) The compounds of the present invention as described were tested in the mTOR kinobeads assay as described below. Briefly, test compounds (at various concentrations) and the affinity matrix (1:1 mixture of beads with immobilized phenylthiazole ligand 1 and beads with immobilized phenylmorpholin-chromen ligand; WO 2009/098021) were added to cell lysate aliquots and allowed to bind to the proteins in the lysate sample. After the incubation time the beads with captured proteins were separated from the lysate. Bound proteins were then eluted and the presence of mTOR, PI3K alpha (PI3Kα), PI3K beta (PI3Kb), PI3K gamma (PI3Kg), PI3K delta (PI3Kd) and DNA-dependent protein kinase (DNA-PK) was detected and quantified using a specific antibody in a dot blot procedure and the Odyssey infrared detection system. Dose response curves for individual kinases were generated and IC50 values calculated. Kinobeads assays for PI3 kinases (WO-A 2008/015013) and for kinase selectivity profiling (WO 2009/098021) have been previously described.
(§2) The affinity matrix (beads with immobilized phenylmorpholin-chromen ligand) was washed three times with 15 ml of 1×DP buffer containing 0.2% NP40 (IGEPAL® CA-630, Sigma, #13021) and then resuspended in 5.5 ml of 1×DP buffer containing 0.2% NP40 (10% beads slurry).
(§3) 5×DP buffer: 250 mM Tris-HCl pH 7.4, 25% Glycerol, 7.5 mM MgCl2, 750 mM NaCl, 5 mM Na3VO4, filter the 5×-lysis buffer through 0.22 μm filter and store in aliquots at −80° C. The 5×DP buffer is diluted to 1×DP buffer containing 1 mM DTT and 25 mM NaF.
(§4) Stock solutions of test compounds were prepared in DMSO. In a 96 well plate 30 μl solution of diluted test compounds at 5 mM in DMSO were prepared. Starting with this solution a 1:3 dilution series (9 steps) was prepared. For control experiments (no test compound) a buffer containing 2% DMSO was used. Compound PI-103 served as a positive control (Calbiochem catalogue number 528100).
(§5) Jurkat cells (ATCC catalogue number TIB-152 Jurkat, clone E6-1) were grown in 1 liter Spinner flasks (Integra Biosciences, #182101) in suspension in RPMI 1640 medium (Invitrogen, #21875-034) supplemented with 10% Fetal Bovine Serum (Invitrogen) at a density between 0.15×10^6 and 1.2×10^6 cells/ml. Cells were harvested by centrifugation, washed once with 1×PBS buffer (Invitrogen, #14190-094) and cell pellets were frozen in liquid nitrogen and subsequently stored at −80° C.
(§6) Jurkat cells were homogenized in a Potter S homogenizer in lysis buffer: 50 mM Tris-HCl, 0.8% NP40, 5% glycerol, 150 mM NaCl, 1.5 mM MgCl2, 25 mM NaF, 1 mM sodium vanadate, 1 mM DTT, pH 7.5. One complete EDTA-free tablet (protease inhibitor cocktail, Roche Diagnostics, 1873580) per 25 ml buffer was added. The material was dounced 10 times using a mechanized POTTER S, transferred to 50 ml falcon tubes, incubated for 30 minutes on ice and spun down for 10 min at 20,000 g at 4° C. (10,000 rpm in Sorvall SLA600, precooled). The supernatant was transferred to an ultracentrifuge (UZ)-polycarbonate tube (Beckmann, 355654) and spun for 1 hour at 100.000 g at 4° C. (33.500 rpm in Ti50.2, precooled). The supernatant was transferred again to a fresh 50 ml falcon tube, the protein concentration was determined by a Bradford assay (BioRad) and samples containing 50 mg of protein per aliquot were prepared. The samples were immediately used for experiments or frozen in liquid nitrogen and stored frozen at −80° C.
(§7) Jurkat cell lysate (approximately 50 mg protein per plate) was thawed in a water bath at room temperature and then kept on ice. To the thawed cell lysate 1×DP 0.8% NP40 buffer containing protease inhibitors (1 tablet for 25 ml buffer; EDTA-free protease inhibitor cocktail; Roche Diagnostics 1873580) was added in order to reach a final protein concentration of 5 mg/ml total protein. The diluted cell lysate was stored on ice. […]

[2] = target: T2, PI3K alpha (PI3Kα) (Homo sapiens, UniProt P42336); experiment: kinobeads assay, PI3K alpha; assay type: binding; conditions: Jurkat cell lysate, read-out: Inhibition values (IC50) PI3Ka
T2 construct: Jurkat cells were homogenized in a Potter S homogenizer in lysis buffer; endogenous in cells; host or cells: Jurkat, clone E6-1 (ATCC TIB-152) lysate
T2 sequence (P42336 whole entry): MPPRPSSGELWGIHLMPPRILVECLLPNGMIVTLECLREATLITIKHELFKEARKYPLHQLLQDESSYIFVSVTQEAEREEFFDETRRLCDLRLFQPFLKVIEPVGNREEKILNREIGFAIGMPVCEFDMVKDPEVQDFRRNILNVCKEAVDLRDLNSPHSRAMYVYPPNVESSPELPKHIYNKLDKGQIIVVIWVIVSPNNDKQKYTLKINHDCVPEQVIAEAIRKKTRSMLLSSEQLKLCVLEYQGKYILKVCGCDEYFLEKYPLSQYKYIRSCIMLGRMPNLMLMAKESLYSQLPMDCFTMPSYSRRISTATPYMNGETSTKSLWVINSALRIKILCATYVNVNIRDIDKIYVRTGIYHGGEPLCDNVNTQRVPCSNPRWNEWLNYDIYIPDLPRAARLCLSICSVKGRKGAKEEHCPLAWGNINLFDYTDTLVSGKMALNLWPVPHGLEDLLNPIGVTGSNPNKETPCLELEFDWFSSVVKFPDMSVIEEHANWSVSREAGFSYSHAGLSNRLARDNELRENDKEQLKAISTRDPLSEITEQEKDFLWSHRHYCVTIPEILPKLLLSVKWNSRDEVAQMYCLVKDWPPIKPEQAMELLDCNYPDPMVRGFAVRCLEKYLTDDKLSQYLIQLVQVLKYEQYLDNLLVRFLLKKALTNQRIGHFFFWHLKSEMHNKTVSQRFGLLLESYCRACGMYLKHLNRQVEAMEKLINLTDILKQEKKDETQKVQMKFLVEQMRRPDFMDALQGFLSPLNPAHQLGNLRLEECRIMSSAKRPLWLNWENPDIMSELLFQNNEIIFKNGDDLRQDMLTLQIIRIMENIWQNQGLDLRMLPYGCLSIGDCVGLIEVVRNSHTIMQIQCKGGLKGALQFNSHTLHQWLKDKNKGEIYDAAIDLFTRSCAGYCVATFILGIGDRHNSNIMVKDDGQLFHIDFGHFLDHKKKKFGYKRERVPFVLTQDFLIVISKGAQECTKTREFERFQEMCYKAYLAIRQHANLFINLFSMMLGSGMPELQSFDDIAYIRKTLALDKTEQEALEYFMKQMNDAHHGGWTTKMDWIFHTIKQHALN
T2 sequence (P27986 whole entry partner): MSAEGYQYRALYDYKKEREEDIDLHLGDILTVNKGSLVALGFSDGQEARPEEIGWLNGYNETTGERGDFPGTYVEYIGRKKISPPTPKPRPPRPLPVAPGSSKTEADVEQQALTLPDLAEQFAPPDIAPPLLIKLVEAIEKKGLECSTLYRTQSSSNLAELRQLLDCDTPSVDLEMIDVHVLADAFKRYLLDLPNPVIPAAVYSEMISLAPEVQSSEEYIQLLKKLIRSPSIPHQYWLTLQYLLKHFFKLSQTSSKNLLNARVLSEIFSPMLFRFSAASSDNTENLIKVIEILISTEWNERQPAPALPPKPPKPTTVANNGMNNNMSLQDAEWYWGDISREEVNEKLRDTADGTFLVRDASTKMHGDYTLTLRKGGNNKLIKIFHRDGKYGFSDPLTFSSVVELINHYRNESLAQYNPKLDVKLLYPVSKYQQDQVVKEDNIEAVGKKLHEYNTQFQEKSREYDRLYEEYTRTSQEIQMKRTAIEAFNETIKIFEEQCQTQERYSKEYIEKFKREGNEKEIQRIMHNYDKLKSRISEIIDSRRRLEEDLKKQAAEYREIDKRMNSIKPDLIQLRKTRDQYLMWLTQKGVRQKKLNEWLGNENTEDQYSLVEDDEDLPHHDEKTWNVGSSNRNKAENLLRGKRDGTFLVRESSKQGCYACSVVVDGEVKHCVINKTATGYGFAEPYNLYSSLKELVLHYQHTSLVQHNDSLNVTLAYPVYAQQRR
Description: as §1, §2, §3, §4, §5, §6, §7

[3] = system: S6RP serine-240/244 phosphorylation; experiment: In vitro phospho-S6 cellular assay (HEK293T/17); assay type: cell-based; conditions: Homo sapiens; HEK293T/17 cells, 2 hours, pS6RP Ser240/244; read-out: Inhibition values (IC50) pS6
Excerpt: Activation of mTOR signaling results in phosphorylation of several downstream targets. In cells, mTOR exists in two different protein complexes. The mTOR Complex-1 (mTORC1) phosphorylates and activates S6 Kinase 1 (S6K1) and S6 Kinase 2 (S6K2) (also known as p70S6K) which then phosphorylate S6 Ribosomal Protein (S6RP) (also known as RPS6)3. S6RP is phosphorylated on serine 235, senile 236, serine 240 and serine 244 by both pS6K1 and pS6K2. The mTOR Complex-2 (mTORC2) phosphorylates AKT on serine 473 which activates the AKT signaling pathway.
The assay measures a test compound's inhibition of S6RP serine-240/244 phosphorylation and inhibition of Akt serine-473 phosphorylation in human embryonic kidney derived HEK293T/17 cells (ATCC CRL-11268).
The HEK293T/17 cell line is maintained in DMEM media (Invitrogen catalogue number 41965-039) supplemented with 10% FCS at 37° C. in a 5% CO2 humidified incubator. Cells are seeded in 96-well plates at 40,000 cells/well (pS6RP S240/244 assay) or 80,000 cells/well (pAkt 5473 assay) in 90 μl growth media (DMEM, 2% FCS). Plates are incubated for 1 hour in a humidified incubator to allow the cells to adhere. Cells are treated with 8 concentrations of test compounds or DMSO alone for controls (final DMSO concentration 0.1%) and incubated at 37° C. for 2 hours. Then 20 μl of 5× concentrated lysis buffer (750 mM NaCl, 100 mM Tris pH7.4, 5 mM ADTA, 5 mM EGTA, 5% Triton X-100) is added, plates are sealed and incubated for 15 minutes at 4° C. with gentle shaking After cell lysis, 25 μl cell lysate is transferred to a MesoScale plate coated with an antibody to pS6RP Ser240/244 (MesoScale Discovery K150DGD-3) or an antibody to pAkt Ser 473 (MesoScale Discovery K151DGD-3). Plates have been blocked before by incubation with 150 μl MesoScale Discovery Blocking Solution-A for 1 hour at room temperature followed by washing with 150 μl 1×Tris wash buffer per well. After the transfer of the cell lysate to the MSD plate, the pS6RP (or pAkt) protein is captured on the coated antibody by incubation at room temperature for 1 hour with gentle shaking. After the capture step the plate is washed three times with 150 μl of 1× Tris wash buffer per well. Then 25 μl detection antibody conjugated with a Sulfo-Tag is added and incubated for 1 hour at room temperature with gentle shaking. Subsequently the antibody solution is removed and the plate is washed 3 times with 150 μl 1×Tris wash buffer per well and 150 μl Read buffer is added. The plates are analysed on a MSD 2400 Plate Reader (MesoScale Discovery). Data analysis is performed using nonlinear regression for a sigmoidal dose-response with a variable slope.

[4] = target: T3, DNA-dependent protein kinase (DNA-PK) (Homo sapiens, UniProt P78527); experiment: kinobeads assay, DNA-PK; assay type: binding; conditions: Jurkat cell lysate, read-out: Inhibition values (IC50) DNA-PK
T3 construct: Jurkat cells were homogenized in a Potter S homogenizer in lysis buffer; endogenous in cells; host or cells: Jurkat, clone E6-1 (ATCC TIB-152) lysate
Description: as §1, §2, §3, §4, §5, §6, §7

[5] = target: T4, PI3K delta (PI3Kd) (Homo sapiens, UniProt O00329); experiment: kinobeads assay, PI3K delta; assay type: binding; conditions: Jurkat cell lysate, read-out: Inhibition values (IC50) PI3Kd
T4 construct: Jurkat cells were homogenized in a Potter S homogenizer in lysis buffer; endogenous in cells; host or cells: Jurkat, clone E6-1 (ATCC TIB-152) lysate
T4 sequence (O00329 whole entry): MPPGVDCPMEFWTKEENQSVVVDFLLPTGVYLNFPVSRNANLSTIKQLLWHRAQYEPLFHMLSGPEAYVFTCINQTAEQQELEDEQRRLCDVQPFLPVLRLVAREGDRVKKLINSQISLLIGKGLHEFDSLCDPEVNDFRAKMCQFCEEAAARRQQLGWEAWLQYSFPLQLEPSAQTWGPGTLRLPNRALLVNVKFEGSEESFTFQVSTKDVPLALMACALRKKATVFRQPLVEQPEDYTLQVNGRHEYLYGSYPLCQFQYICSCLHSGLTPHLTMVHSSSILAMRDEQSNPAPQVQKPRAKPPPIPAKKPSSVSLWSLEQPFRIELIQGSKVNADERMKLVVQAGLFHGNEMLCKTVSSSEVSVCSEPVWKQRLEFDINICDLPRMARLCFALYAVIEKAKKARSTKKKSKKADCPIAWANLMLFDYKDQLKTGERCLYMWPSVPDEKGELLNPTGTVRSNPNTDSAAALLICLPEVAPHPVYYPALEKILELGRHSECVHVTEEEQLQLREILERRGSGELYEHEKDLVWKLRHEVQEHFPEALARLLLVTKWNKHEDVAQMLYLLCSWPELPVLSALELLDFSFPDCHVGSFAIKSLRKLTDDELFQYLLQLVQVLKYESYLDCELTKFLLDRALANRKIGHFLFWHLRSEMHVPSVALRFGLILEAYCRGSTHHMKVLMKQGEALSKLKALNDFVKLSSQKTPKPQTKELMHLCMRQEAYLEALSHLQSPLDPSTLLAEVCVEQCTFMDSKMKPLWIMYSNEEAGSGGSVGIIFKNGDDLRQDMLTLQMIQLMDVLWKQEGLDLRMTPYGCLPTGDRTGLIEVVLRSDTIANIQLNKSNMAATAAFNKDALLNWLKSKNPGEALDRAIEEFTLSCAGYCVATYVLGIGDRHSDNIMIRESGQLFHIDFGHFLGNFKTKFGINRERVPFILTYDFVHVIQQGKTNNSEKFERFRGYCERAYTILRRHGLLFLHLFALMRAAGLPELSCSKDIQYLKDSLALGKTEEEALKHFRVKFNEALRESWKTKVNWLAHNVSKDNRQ
T4 sequence (P27986 whole entry partner): as the sequence (P27986 whole entry partner) above
Description: as §1, §2, §3, §4, §5, §6, §7

[6] = target: T5, PI3K beta (PI3Kb) (Homo sapiens, UniProt P42338); experiment: kinobeads assay, PI3K beta; assay type: binding; conditions: Jurkat cell lysate, read-out: Inhibition values (IC50) PI3Kb
T5 construct: Jurkat cells were homogenized in a Potter S homogenizer in lysis buffer; endogenous in cells; host or cells: Jurkat, clone E6-1 (ATCC TIB-152) lysate
T5 sequence (P42338 whole entry): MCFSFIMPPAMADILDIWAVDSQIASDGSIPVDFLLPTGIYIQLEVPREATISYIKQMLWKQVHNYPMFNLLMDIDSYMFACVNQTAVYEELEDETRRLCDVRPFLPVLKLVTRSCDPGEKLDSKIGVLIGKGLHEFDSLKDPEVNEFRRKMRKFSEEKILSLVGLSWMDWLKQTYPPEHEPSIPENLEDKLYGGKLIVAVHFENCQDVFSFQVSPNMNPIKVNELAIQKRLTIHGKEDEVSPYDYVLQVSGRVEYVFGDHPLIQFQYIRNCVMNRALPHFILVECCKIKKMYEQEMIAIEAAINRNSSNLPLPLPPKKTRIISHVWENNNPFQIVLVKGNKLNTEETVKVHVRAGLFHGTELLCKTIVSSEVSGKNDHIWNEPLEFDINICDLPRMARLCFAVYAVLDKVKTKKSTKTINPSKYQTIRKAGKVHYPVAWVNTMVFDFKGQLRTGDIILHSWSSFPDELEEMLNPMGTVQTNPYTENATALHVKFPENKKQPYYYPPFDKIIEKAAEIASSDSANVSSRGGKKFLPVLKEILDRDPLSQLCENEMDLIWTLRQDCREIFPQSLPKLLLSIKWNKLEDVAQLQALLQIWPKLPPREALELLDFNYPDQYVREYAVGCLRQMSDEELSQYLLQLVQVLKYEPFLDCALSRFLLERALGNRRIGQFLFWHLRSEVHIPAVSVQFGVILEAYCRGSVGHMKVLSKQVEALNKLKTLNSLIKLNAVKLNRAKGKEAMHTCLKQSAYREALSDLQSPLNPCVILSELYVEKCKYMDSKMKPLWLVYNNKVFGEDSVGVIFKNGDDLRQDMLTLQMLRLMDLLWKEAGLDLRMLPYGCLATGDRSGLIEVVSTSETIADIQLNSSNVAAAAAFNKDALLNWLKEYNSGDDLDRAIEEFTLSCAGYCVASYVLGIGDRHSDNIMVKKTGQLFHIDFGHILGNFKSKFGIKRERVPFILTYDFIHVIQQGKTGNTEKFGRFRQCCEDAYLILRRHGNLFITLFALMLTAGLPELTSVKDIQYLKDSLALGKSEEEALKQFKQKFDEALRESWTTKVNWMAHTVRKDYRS
T5 sequence (P27986 whole entry partner): as the sequence (P27986 whole entry partner) above
Description: as §1, §2, §3, §4, §5, §6, §7

[7] = target: T6, PI3K gamma (PI3Kg) (Homo sapiens, UniProt P48736); experiment: kinobeads assay, PI3K gamma; assay type: binding; conditions: Jurkat cell lysate, read-out: Inhibition values (IC50) PI3Kg
T6 construct: Jurkat cells were homogenized in a Potter S homogenizer in lysis buffer; endogenous in cells; host or cells: Jurkat, clone E6-1 (ATCC TIB-152) lysate
T6 sequence (P48736 whole entry): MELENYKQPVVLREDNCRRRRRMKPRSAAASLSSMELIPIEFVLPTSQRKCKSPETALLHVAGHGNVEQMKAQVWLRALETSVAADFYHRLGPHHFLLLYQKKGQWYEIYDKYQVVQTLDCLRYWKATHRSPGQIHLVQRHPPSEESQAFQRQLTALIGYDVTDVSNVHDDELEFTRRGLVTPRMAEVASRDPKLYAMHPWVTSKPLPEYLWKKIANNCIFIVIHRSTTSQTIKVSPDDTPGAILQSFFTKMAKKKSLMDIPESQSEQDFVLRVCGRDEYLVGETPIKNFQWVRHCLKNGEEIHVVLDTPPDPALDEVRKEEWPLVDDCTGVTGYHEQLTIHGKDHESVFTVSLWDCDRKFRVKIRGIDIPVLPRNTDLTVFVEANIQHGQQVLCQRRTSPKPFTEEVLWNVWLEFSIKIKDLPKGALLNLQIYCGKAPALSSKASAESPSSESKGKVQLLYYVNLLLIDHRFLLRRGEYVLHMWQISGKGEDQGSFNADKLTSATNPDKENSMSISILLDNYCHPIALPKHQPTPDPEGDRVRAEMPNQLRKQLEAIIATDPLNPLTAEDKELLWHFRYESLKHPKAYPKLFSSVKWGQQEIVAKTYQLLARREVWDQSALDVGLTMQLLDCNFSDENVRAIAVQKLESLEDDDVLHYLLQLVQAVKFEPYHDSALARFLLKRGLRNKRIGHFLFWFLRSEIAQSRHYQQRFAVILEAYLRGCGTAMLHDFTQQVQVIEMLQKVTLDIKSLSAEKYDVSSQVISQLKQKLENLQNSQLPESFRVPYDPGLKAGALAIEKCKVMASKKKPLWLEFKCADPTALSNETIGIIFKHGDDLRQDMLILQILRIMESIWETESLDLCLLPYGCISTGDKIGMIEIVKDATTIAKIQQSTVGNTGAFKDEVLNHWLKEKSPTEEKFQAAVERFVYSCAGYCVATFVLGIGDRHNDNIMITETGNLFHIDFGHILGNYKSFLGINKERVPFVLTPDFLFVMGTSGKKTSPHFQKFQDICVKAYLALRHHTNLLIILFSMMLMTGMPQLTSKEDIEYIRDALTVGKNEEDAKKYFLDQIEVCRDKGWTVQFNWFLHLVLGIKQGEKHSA
Description: as §1, §2, §3, §4, §5, §6, §7

| IC50 [1] [µM] | IC50 [2] [µM] | IC50 [3] [µM] | IC50 [4] [µM] | IC50 [5] [µM] | IC50 [6] [µM] | IC50 [7] [µM] | SMILES |
| --- | --- | --- | --- | --- | --- | --- | --- |
| 0.1 to 1 | > 10 | < 0.1 | > 10 |  |  |  | CNC(=O)Nc1ccc(-c2nc(-c3cc(F)ccc3S(C)(=O)=O)nc(N3CCOC[C@@H]3C)n2)cc1 [Example 2, (S)-1-(4-(4-(5-fluoro-2-(methylsulfonyl)phenyl)-6-(3-methylmorpholino)-1,3,5-triazin-2-yl)phenyl)-3-methylurea] |
| 1 to 10 | > 10 |  | > 10 | > 10 | > 10 | > 10 | CS(=O)(=O)c1ccccc1-c1nc(-c2ccc(NC(=O)NC3CC3)cc2)nc(N2CCOCC2CO)n1 (centres unmarked) [Example 23, 1-cyclopropyl-3-(4-(4-(3-(hydroxymethyl)morpholino)-6-(2-(methylsulfonyl)phenyl)-1,3,5-triazin-2-yl)phenyl)urea] |
| 1 to 10 | > 10 |  | > 10 | > 10 | > 10 | > 10 | C[C@H]1COCCN1c1nc(-c2ccc(NC(=O)NC3CCCCC3)cc2)nc(-c2ccccc2S(C)(=O)=O)n1 [Example 28, (S)-1-cyclohexyl-3-(4-(4-(3-methylmorpholino)-6-(2-(methylsulfonyl)phenyl)-1,3,5-triazin-2-yl)phenyl)urea] |
| 1 to 10 | > 10 |  | > 10 | > 10 | > 10 | > 10 | C[C@H]1COCCN1c1nc(-c2ccc(NC(=O)NCC(C)(C)C)cc2)nc(-c2ccccc2S(C)(=O)=O)n1 [Example 30, (S)-1-(4-(4-(3-methylmorpholino)-6-(2-(methylsulfonyl)phenyl)-1,3,5-triazin-2-yl)phenyl)-3-neopentylurea] |
| 1 to 10 | > 10 |  |  |  |  |  | C[C@H]1COCCN1c1nc(-c2ccc(NC(=O)NCCC(N)C(F)(F)F)cc2)nc(-c2ccccc2S(C)(=O)=O)n1 (stereo partly drawn) [Example 37, 1-(3-amino-4,4,4-trifluorobutyl)-3-(4-(4-((S)-3-methylmorpholino)-6-(2-(methylsulfonyl)phenyl)-1,3,5-triazin-2-yl)phenyl)urea] |
| 1 to 10 | > 10 | 0.1 to 1 |  |  |  |  | CS(=O)(=O)c1ccc(F)cc1-c1nc(-c2ccc(NC(=O)NC3CC3)cc2)nc(N2CC3CCC(C2)O3)n1 [Example 39, 1-(4-(4-(8-oxa-3-azabicyclo[3.2.1]octan-3-yl)-6-(5-fluoro-2-(methylsulfonyl)phenyl)-1,3,5-triazin-2-yl)phenyl)-3-cyclopropylurea] |
| < 0.1 | 1 to 10 | < 0.1 | > 10 |  |  |  | CCNC(=O)Nc1ccc(-c2nc(-c3cccnc3S(C)(=O)=O)nc(N3CCOC[C@@H]3C)n2)cc1 [Example 40, (S)-1-ethyl-3-(4-(4-(3-methylmorpholino)-6-(2-(methylsulfonyl)pyridin-3-yl)-1,3,5-triazin-2-yl)phenyl)ure] |
| < 0.1 | 1 to 10 | < 0.1 | > 10 |  |  |  | CNC(=O)Nc1ccc(-c2nc(-c3cccnc3S(C)(=O)=O)nc(N3CCOC[C@@H]3C)n2)cc1 [Example 41, (S)-1-methyl-3-(4-(4-(3-methylmorpholino)-6-(2-(methylsulfonyl)pyridin-3-yl)-1,3,5-triazin-2-yl)phenyl)urea] |
| 0.1 to 1 | > 10 | < 0.1 | > 10 |  |  |  | CCNC(=O)Nc1ccc(-c2nc(-c3cc(F)ccc3S(C)(=O)=O)nc(N3CCOC[C@@H]3C)n2)cc1 [Example 42, (S)-1-ethyl-3-(4-(4-(5-fluoro-2-(methylsulfonyl)phenyl)-6-(3-methylmorpholino)-1,3,5-triazin-2-yl)phenyl)urea] |
| 0.1 to 1 | > 10 | < 0.1 | > 10 |  |  |  | C[C@H]1COCCN1c1nc(-c2ccc(NC(=O)NCC(F)F)cc2)nc(-c2cc(F)ccc2S(C)(=O)=O)n1 [Example 43, (S)-1-(2,2-difluoroethyl)-3-(4-(4-(5-fluoro-2-(methylsulfonyl)phenyl)-6-(3-methylmorpholino)-1,3,5-triazin-2-yl)phenyl)urea] |
| 0.1 to 1 | > 10 | < 0.1 | > 10 |  |  |  | C[C@H]1COCCN1c1nc(-c2ccc(NC(=O)NCCF)cc2)nc(-c2cc(F)ccc2S(C)(=O)=O)n1 [Example 44, (S)-1-(4-(4-(5-fluoro-2-(methylsulfonyl)phenyl)-6-(3-methylmorpholino)-1,3,5-triazin-2-yl)phenyl)-3-(2-fluoroethyl)urea] |
